Measured values as given in patent US9790221B2, “Heteroaryl compounds as IRAK inhibitors and uses thereof” (Merck Patent GmbH, priority 2014, dated 2017).
Structures can show the parent of a compound that is named as a salt.

Columns and labels:
[1] = molecular target: IRAK1 (His-TEV-IRAK1 (194-712)) (Homo sapiens (Human), UniProt P51617); experiment: IRAK1 enzymatic assay; type: biochemical
Method in brief: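 Compounds ([…] down to 1 nM) were incubated 3 h at 30° C with His-TEV-IRAK1 (194-712, 15 ng/well) and 1 μM [33P]-labelled ATP in 50 mM Hepes pH 7.0, 10 mM MgCl2. After EDTA stop and washing, the retained autophosphorylation signal was measured by scintillation in streptavidin-coated plates.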

[2] = molecular target: IRAK4 (Homo sapiens (Human), UniProt Q9NWZ3); experiment: IRAK4 enzymatic assay; type: biochemical
Method in brief: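 Radiometric streptavidin FlashPlate read: 3 h, 30° C incubation of His-TEV-IRAK4 (20 ng/well), STK1-biotin substrate (300 nM) and ATP (2 μM, [^33P]-labelled) in Hepes pH 7.0, MgCl2 10 mM, MnCl2 5 mM. Compounds from 20 µM down to 1 nM, 2% DMSO controls; reaction quenched with EDTA.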

[3] = test system: TLR7 induced IL-6 secretion in human mononuclear cells (PBMC's); experiment: TLR7 induced IL-6 in human PBMC's; type: cell-based; conditions: Homo sapiens, PBMC, read-out: TLR7 induced IL-6 secretion in hPBMC's (IC50)
Procedure: TLR7 Induced IL-6 in Human PBMC's
Human PBMC assay was used as one of the functional assay a to monitor the activity of IRAK1 and IRAK4 small molecule inhibitors on TLR7 induced IL-6 secretion in human mononuclear cells (PBMC's). Human PBMCs were prepared from buffy coats (whole blood enriched with leukocytes and platelets) obtained from healthy volunteers used either fresh or frozen are plated in assay media (RPMI+2% P/S/L-glu+10% HI-FBS) and pre-treated with compounds in DMSO/media (range of concentrations from 25 uM to 0.4 nM) or controls (0.25% DMSO) for 30 minutes at 37° C. in assay media. Following pre-treatment with IRAK1 and IRAK4 inhibitors, PBMC's were stimulated with TLR7 specific ligand (2 uM) overnight (16-18 hrs) at 37° C. After incubation supernatant was transferred to 384 well PE AlphaPlate-384 (6005350) and IL-6 is quantified using Perkin Elmer IL-6 Alpha LISA kit (AL223C). Plates were read on an Envision® plate reader with Alpha Technology®.

Chain of IRAK4 (Q9NWZ3 whole entry): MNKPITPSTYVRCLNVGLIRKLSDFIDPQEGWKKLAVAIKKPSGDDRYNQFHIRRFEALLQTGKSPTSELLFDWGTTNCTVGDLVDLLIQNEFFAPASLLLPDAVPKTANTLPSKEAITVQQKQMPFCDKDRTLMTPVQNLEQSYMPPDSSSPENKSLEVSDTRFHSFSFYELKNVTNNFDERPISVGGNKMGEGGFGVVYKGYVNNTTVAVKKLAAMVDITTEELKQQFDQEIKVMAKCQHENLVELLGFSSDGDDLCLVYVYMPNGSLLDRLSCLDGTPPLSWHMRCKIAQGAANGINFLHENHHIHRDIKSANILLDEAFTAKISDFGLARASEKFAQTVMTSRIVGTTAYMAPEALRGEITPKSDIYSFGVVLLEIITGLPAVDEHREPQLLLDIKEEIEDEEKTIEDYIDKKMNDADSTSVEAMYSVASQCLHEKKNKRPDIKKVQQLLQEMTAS
Chain of IRAK1 (His-TEV-IRAK1 (194-712)) (P51617 194-712): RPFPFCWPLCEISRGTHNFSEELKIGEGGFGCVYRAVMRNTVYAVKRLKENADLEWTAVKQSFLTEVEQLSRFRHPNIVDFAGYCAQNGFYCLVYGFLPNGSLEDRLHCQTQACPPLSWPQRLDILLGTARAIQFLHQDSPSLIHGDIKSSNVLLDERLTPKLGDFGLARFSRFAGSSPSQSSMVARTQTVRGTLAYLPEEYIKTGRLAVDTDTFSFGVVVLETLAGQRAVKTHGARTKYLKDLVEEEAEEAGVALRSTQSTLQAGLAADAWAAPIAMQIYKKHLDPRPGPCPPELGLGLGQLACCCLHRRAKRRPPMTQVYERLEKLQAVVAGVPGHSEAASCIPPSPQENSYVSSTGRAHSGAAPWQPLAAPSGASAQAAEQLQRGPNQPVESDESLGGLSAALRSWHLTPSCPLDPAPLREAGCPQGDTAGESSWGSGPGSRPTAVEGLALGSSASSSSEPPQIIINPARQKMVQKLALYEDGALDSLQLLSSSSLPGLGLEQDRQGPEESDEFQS

Row | Compound | IC50 [1] [nM] | IC50 [2] [nM] | IC50 [3] [nM]
1 | Cn1cc(-c2cccc(-c3ncc(-c4cnn(C)c4)c(N[C@H]4CCC[C@@H]4O)n3)c2)cn1 (racemic) [Example 94] | 100 to 1000 | < 100 | 1000 to 5000
2 | Cn1cc(-c2cccc(-c3ncc(-c4cnn(C)c4)c(N4CC[C@H](F)[C@@H](O)C4)n3)c2)cn1 [Example 280] | 100 to 1000 | < 100 | 1000 to 5000
3 | Cn1cc(-c2cccc(-c3ncc(-c4cnn(C)c4)c(N[C@@H]4CC[C@H](N)C4)n3)c2)cn1 (racemic) [Example 108] | 100 to 1000 | < 100 | 100 to 1000
4 | Cn1cc(-c2cccc(-c3ncc(-c4cnn(C)c4)c(N[C@H]4CCC[C@@H](O)C4)n3)c2)cn1 (racemic) [Example 161] | < 100 | < 100 | 100 to 1000
5 | Cn1cc(-c2cccc(-c3ncc(-c4cnn(C)c4)c(O[C@@H]4CCC[C@@H](N)[C@@H]4O)n3)c2)cn1 (racemic) [Example 134, (1S,2R,6R)-2-Amino-6-{5-(1-methyl-1H-pyrazol-4-yl)-2-[3-(1-methyl-1H-pyrazol-4-yl)-phenyl]-pyrimidin-4-yloxy}-cyclohexanol] | < 100 | < 100 | < 100
6 | Cn1cc(-c2cccc(-c3ncc(-c4cnn(C)c4)c(N[C@H]4CC[C@H](NS(=O)(=O)C5CC5)CC4)n3)c2)cn1 [Example 276] | < 100 | < 100 | 100 to 1000
7 | CC(C)Nc1nc(-c2cccc(-c3cnn(C)c3)c2)ncc1-c1cnn(C)c1 [Example 260] | 100 to 1000 | 100 to 1000 | 1000 to 5000
8 | Cn1cc(-c2cccc(-c3ncc(-c4ccn(C)n4)c(NC4CCOC4)n3)c2)cn1 (stereo not drawn) [Example 119] | 1000 to 5000 | 100 to 1000 | > 5000
9 | Cn1cc(-c2cccc(-c3ncc(-c4cnn(C)c4)c(N[C@H]4C[C@@H](S(C)(=O)=O)C4)n3)c2)cn1 [Example 49] | 100 to 1000 | 100 to 1000 | > 5000
10 | Cn1cc(-c2cccc(-c3ncc(-c4cnn(C)c4)c(NC45CCC(NS(C)(=O)=O)(CC4)CC5)n3)c2)cn1 [Example 187] | < 100 | < 100 | 100 to 1000
11 | Cn1cc(-c2cccc(-c3ncc(-c4cnn(C)c4)c(N[C@@H]4CCCC(F)(F)[C@H]4O)n3)c2)cn1 [Example 287, (1S,6R)-2,2-Difluoro-6-{5-(1-methyl-1H-pyrazol-4-yl)-2-[3-(1-methyl-1H-pyrazol-4-yl)-phenyl]-pyrimidin-4-ylamino}-cyclohexanol] | 100 to 1000 | < 100 | 1000 to 5000
12 | Cn1cc(-c2cccc(-c3ncc(-c4cnn(C)c4)c(NCc4ccncc4)n3)c2)cn1 [Example 37] | 1000 to 5000 | 100 to 1000 | 1000 to 5000
13 | Cn1cc(-c2cccc(-c3ncc(-c4cnn(C)c4)c(NC4CCOC4)n3)c2)cn1 (stereo not drawn) [Example 41] | 100 to 1000 | 100 to 1000 | 1000 to 5000
14 | Cn1cc(-c2cccc(-c3ncc(-c4cnn(C)c4)c(NC4CC(F)(F)C4)n3)c2)cn1 [Example 48] | 100 to 1000 | 100 to 1000 | > 5000
15 | Cn1cc(-c2cccc(-c3ncc(-c4cnn(C)c4)c(NCC4(O)CCNCC4(C)C)n3)c2)cn1 (stereo not drawn) [Example 112] | 1000 to 5000 | 100 to 1000 | 1000 to 5000
16 | Cn1cc(-c2cccc(-c3ncc(-c4cnn(C)c4)c(N4CCC(N)CC4)n3)c2)cn1 [Example 239] | 100 to 1000 | 100 to 1000 | 100 to 1000
17 | Cn1cc(-c2cccc(-c3ncc(-c4cnn(C)c4)c(NC45CC(NS(C)(=O)=O)(C4)C5)n3)c2)cn1 [Example 270] | < 100 | < 100 | < 100
18 | Cn1cc(-c2cccc(-c3ncc(-c4cnn(C)c4)c(NC45CC(N)(C4)C5)n3)c2)cn1 [Example 269] | 100 to 1000 | < 100 | 100 to 1000
19 | Cn1cc(-c2cccc(-c3ncc(-c4cnn(C)c4)c(N[C@H]4CC[C@H](N)C4)n3)c2)cn1 [Example 185] | 1000 to 5000 | < 100 | 1000 to 5000
20 | Cn1cc(-c2cccc(-c3ncc(-c4cnn([C@H]5CC[C@]6(CCC(=O)N6C)CC5)c4)c(NCC4CCNCC4)n3)c2)cn1 [Example 86, 1-Methyl-8-(4-{2-[3-(1-methyl-1H-pyrazol-4-yl)-phenyl]-4-[(piperidin-4-ylmethyl)-amino]-pyrimidin-5-yl}-pyrazol-1-yl)-1-aza-spiro[4.5]decan-2-one Hydrochloride] | 1000 to 5000 | < 100 | > 5000
21 | CN[C@H]1CCC[C@H](Nc2nc(-c3cccc(-c4cnn(C)c4)c3)ncc2-c2cnn(C)c2)[C@@H]1O (racemic) [Example 281, (1R,2S,6S)-2-Methylamino-6-{5-(1-methyl-1-pyrazol-4-yl)-2-[3-(1-methyl-1H-pyrazol-4-yl)-phenyl]-pyrimidin-4-ylamino}-cyclohexanol] | > 5000 | < 100 | 1000 to 5000
22 | Cn1cc(-c2cccc(-c3ncc(-c4cnn(C)c4)c(OCC4COC4)n3)c2)cn1 [Example 11, 5-(1-Methyl-1H-pyrazol-4-yl)-2-[3-(1-methyl-1H-pyrazol-4-yl)-phenyl]-4-(oxetan-3-ylmethoxy)-pyrimidine] | > 5000 | 100 to 1000 | 1000 to 5000
23 | Cn1cc(-c2cccc(-c3ncc(-c4cnn(C)c4)c(N[C@@H]4CCN(S(C)(=O)=O)C4)n3)c2)cn1 [Example 171] | < 100 | < 100 | 1000 to 5000
24 | Cn1cc(-c2cccc(-c3ncc(-c4cnn(C)c4)c(NCCCS(C)(=O)=O)n3)c2)cn1 [Example 213] | < 100 | < 100 | 100 to 1000

Now from value to molecule, other results behind:

Row | IC50 [1] [nM] | IC50 [2] [nM] | Compound | IC50 [3] [nM]
25 | 100 to 1000 | < 100 | Cc1nnc(-c2cnc(-c3cccc(-c4cnn(C)c4)c3)nc2NCCNS(C)(=O)=O)s1 [Example 184] | 100 to 1000
26 | 100 to 1000 | 100 to 1000 | Cn1cc(-c2cccc(-c3ncc(-c4cnn(C)c4)c(NC[C@H](O)CO)n3)c2)cn1 [Example 54] | 1000 to 5000
27 | 100 to 1000 | < 100 | CC(C)Nc1nc(-c2cccc(-c3cnn(C)c3)c2)ncc1-c1nnc(C(=O)N2CC[C@@H](O)C2)s1 [Example 16, ((R)-3-Hydroxy-pyrrolidin-1-yl)-(5-{4-isopropylamino-2-[3-(1-methyl-1H-pyrazol-4-yl)-phenyl]-pyrimidin-5-yl}-[1,3,4]thiadiazol-2-yl)-methanone] | 100 to 1000
28 | > 5000 | < 100 | Cc1nnc(-c2cnc(-c3cccc(-c4cnn(C)c4)c3)nc2NCCN2CCOCC2)s1 [Example 146] | 1000 to 5000
29 | 1000 to 5000 | 100 to 1000 | Cn1cc(-c2cccc(-c3ncc(-c4ccn(C)n4)c(NCC4CC(F)(F)C4)n3)c2)cn1 [Example 81] | > 5000
30 | 100 to 1000 | < 100 | Cn1cc(-c2cccc(-c3ncc(-c4cnn(C)c4)c(NCC4CCC(F)(F)CC4)n3)c2)cn1 [Example 136] | 1000 to 5000
31 | 100 to 1000 | < 100 | Cn1cc(-c2cccc(-c3ncc(-c4cnn(C)c4)c(NCC4CCCC(O)C4)n3)c2)cn1 (stereo not drawn) [Example 123] | 100 to 1000
32 | 100 to 1000 | 100 to 1000 | Cn1cc(-c2cccc(-c3ncc(-c4cnn(C)c4)c(NCCCO)n3)c2)cn1 [Example 35] | 1000 to 5000
33 | 100 to 1000 | < 100 | Cn1cc(-c2cccc(-c3ncc(-c4cnn(C)c4)c(NC[C@H]4CC[C@H](O)CC4)n3)c2)cn1 [Example 156] | 100 to 1000
34 | 100 to 1000 | < 100 | Cc1nnc(-c2cnc(-c3cccc(-c4cnn(C)c4)c3)nc2NC2CCC(N)CC2)s1 (stereo not drawn) [Example 128] | 100 to 1000
35 | 100 to 1000 | < 100 | Cn1cc(-c2cccc(-c3ncc(-c4ccn(C)n4)c(NCCCCO)n3)c2)cn1 [Example 97] | 1000 to 5000
36 | 100 to 1000 | 100 to 1000 | CC(=O)NC[C@H]1C[C@@H](Nc2nc(-c3cccc(-c4cnn(C)c4)c3)ncc2-c2cnn(C)c2)C1 [Example 211, N-(3-{5-(1-Methyl-1H-pyrazol-4-yl)-2-[3-(1-methyl-1H-pyrazol-4-yl)-phenyl]-pyrimidin-4-ylamino}-cyclobutylmethyl)-acetamide] | 1000 to 5000
37 | > 5000 | 100 to 1000 | COC(=O)c1nnc(-c2cnc(-c3cccc(-c4cnn(C)c4)c3)nc2NCC2CNC2)s1 [Example 19, 5-{4-[(Azetidin-3-ylmethyl)-amino]-2-[3-(1-methyl-1H-pyrazol-4-yl)-phenyl]-pyrimidin-5-yl}-[1,3,4]thiadiazole-2-carboxylic Acid Methyl Ester Trifluoroacetate] | 1000 to 5000
